This test addresses T1, Aurora-2 (Homo sapiens, UniProt O14965).
T1 construct: autophosphorylation of Aurora-2 (residues 125-391)
T1 sequence (O14965 125-391): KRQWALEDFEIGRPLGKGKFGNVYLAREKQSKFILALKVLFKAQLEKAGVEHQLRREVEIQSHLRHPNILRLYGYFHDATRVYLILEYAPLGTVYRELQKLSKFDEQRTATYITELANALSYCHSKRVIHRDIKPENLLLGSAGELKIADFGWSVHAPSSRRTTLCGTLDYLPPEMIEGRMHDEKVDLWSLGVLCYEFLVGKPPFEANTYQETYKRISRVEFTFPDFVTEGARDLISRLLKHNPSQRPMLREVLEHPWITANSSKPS
Description: Aurora-2 Enzymatic Assay (ELISA-based). It is filed as biochemical. The settings on record: phosphorylated Aurora-2 (residues 125-391), Histone H3 Ser-10 phosphorylation, averages of three independent measurements; read-out: Aurora-2 IC50 Enzyme. As to the method: In vitro assays were run to measure potency of Aurora-2 kinase inhibition by selected compounds of Formula I.
Aurora-2 Enzymatic Assay. An ELISA-based enzymatic assay was used to determine the compound potency for Aurora-2. In this assay, phosphorylated Aurora-2 (Pi-Aurora-2) catalyzes the ATP-dependent phosphorylation of Ser-10 of Histone H3. Pi-Aurora-2 was produced by autophosphorylation of Aurora-2 (residues 125-391) by 1 mM ATP in the presence of 10 mM MgCl2. The assay buffer used was 100 mM HEPES, pH 7.5, 1 mM DTT, 0.01% (v/v) Tween-20. Compounds were diluted in assay buffer containing 4% DMSO just prior to the assay. • Procedure. High-binding 96-well ELISA plates (Costar 9018) were coated overnight at 4° C. with 10 μg/ml human Histone H3 (Upstate) in PBS (100 μl/well). The following day, the plates were emptied and blocked with 1% BSA in PBS (150 μl/well) for 1 h at 37° C. At the end of the incubation, plates were washed 3 times with 0.01% Tween-20 in PBS (300 μl/well). 50 μl of compound were dispensed to each well followed by addition of 20 μl 10 mM MgCl2 and 20 μl 50 μM ATP (Sigma). The reaction was initiated by addition of 10 μl 30 nM Pi-Aurora-2. […] The reaction was quenched with 9 μl 50 mM EDTA and the plates were washed 5 times with 0.01% Tween-20 in PBS (300 μl/well). The phospho-histone H3 (Ser10) 6G3 monoclonal antibody (Cell Signaling) was then diluted 2,000-fold with 1% BSA in PBS, and was added to the plates (100 μl/well). Following 1 h incubation at 37° C., the plates were washed as described above. The HRP-conjugated secondary antibody (goat anti-mouse Ig(H+ L)-HRP human absorbed, Southern Biotechnology Associates, Inc.) was diluted 20,000-fold with 1% BSA in PBS and was added to the plates (100 μl/well). The plates were incubated for 1 h at 37° C. and then washed 5 times with 0.01% Tween-20 in PBS (300 μl/well). 100 μl/well TMB, SureBlue Reserve (KPL) were added. After ca. 5-6 min, each well received 100 μl 1 M HCl and the OD450 was measured with a SpectraMax Plus microplate reader (Molecular Devices). Under these conditions, absorbance values for positive and negative controls were ca. 0.1 and 1.7, respectively, and were used to define the 100% and 0% inhibition of the Aurora-2 reaction. The IC50 values reported (Table 1) are the averages of three independent measurements.
Background: In an ELISA, binding on a coated surface is turned into a signal by an enzyme label.
With `O=c1[nH]c2ncc(-c3ccsc3)nc2n1Cc1ccccc1` [Compound 15, 1-Benzyl-6-thiophen-3-yl-1,3-dihydroimidazo[4,5-b]pyrazin-2-one], the IC50 (usually the concentration that inhibits the measured activity by half) is above 1000 nM.
Next, `COc1ccc(-c2cnc3[nH]c(=O)n(Cc4ccccc4)c3n2)cc1C(N)=O` [Compound 26, 5-(3-Benzyl-2-oxo-2,3-dihydro-1H-imidazo[4,5-b]pyrazin-5-yl)-2-methoxybenzamide]: above 1000 nM; `COc1cc(-c2cnc3[nH]c(=O)n(Cc4ccc(N)cc4)c3n2)cc(OC)c1OC` [Compound 38, 1-(4-Aminobenzyl)-6-(3,4,5-trimethoxyphenyl)-1,3-dihydroimidazo[4,5-b]pyrazin-2-one]: below 500 nM.
On to `COc1cc(OC)cc(-c2cnc3[nH]c(=O)n(Cc4ccccc4)c3n2)c1` [Compound 21, 1-Benzyl-6-(3,5-dimethoxyphenyl)-1,3-dihydro-imidazo[4,5-b]pyrazin-2-one], for which the IC50 was above 1000 nM.
Take `O=c1[nH]c2ncc(-c3cccs3)nc2n1Cc1ccccc1` [Compound 16, 1-Benzyl-6-thiophen-2-yl-1,3-dihydroimidazo[4,5-b]pyrazin-2-one]: the IC50 is above 1000 nM.
Next, `COc1cccc(Cn2c(=O)[nH]c3ncc(-c4cc(OC)c(OC)c(OC)c4)nc32)c1` [Compound 32, 1-(3-Methoxybenzyl)-6-(3,4,5-trimethoxyphenyl)-1,3-dihydro-imidazo[4,5-b]pyrazin-2-one]: 500 to 1000 nM.
Next, `COc1cccc(-c2cnc3[nH]c(=O)n(Cc4ccccc4)c3n2)c1` [Compound 17, 1-Benzyl-6-(3-methoxyphenyl)-1,3-dihydroimidazo[4,5-b]pyrazin-2-one]: above 1000 nM; `COc1cc(-c2cnc3[nH]c(=O)n(Cc4ccccn4)c3n2)cc(OC)c1OC` [Compound 19, 1-Pyridin-2-ylmethyl-6-(3,4,5-trimethoxyphenyl)-1,3-dihydroimidazo[4,5-b]pyrazin-2-one]: 500 to 1000 nM.
Next, `COc1cc(-c2cnc3[nH]c(=O)n(Cc4ccc(Cl)cc4)c3n2)cc(OC)c1OC` [Compound 28, 1-(4-Chlorobenzyl)-6-(3,4,5-trimethoxyphenyl)-1,3-dihydro-imidazo[4,5-b]pyrazin-2-one]: 500 to 1000 nM.

The record behind these values is US7608622B2, “Imidazo[4,5-b]pyrazinone inhibitors of protein kinases” (Janssen Pharmaceutica NV, priority 2004, dated 2009).
